In PubChem BioAssay (NCI):
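Interpolation was linear, between the two tested concentrations surrounding the appropriate level; five concentrations were tested over 48 hours in 96-well plates. GI50 is the concentration that inhibits growth by half. TGI marks complete inhibition of growth.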

What was measured:
Experiment in all cases: NCI tumour cell line growth inhibition, 48 h
A498 renal = tested on: A498 renal
A549 NSCLC = tested on: A549 NSCLC
ACHN renal = tested on: ACHN renal
BT-549 breast = tested on: BT-549 breast
CAKI-1 renal = tested on: CAKI-1 renal
CCRF-CEM leukemia = tested on: CCRF-CEM leukemia
COLO 205 colon = tested on: COLO 205 colon
DU-145 prostate = tested on: DU-145 prostate
EKVX NSCLC = tested on: EKVX NSCLC
HCC-2998 colon = tested on: HCC-2998 colon
HCT-116 colon = tested on: HCT-116 colon
HCT-15 colon = tested on: HCT-15 colon
HL-60(TB) leukemia = tested on: HL-60(TB) leukemia
HOP-62 NSCLC = tested on: HOP-62 NSCLC
HOP-92 NSCLC = tested on: HOP-92 NSCLC
HS 578T breast = tested on: HS 578T breast
HT29 colon = tested on: HT29 colon
IGROV1 ovarian = tested on: IGROV1 ovarian
K-562 leukemia = tested on: K-562 leukemia
KM12 colon = tested on: KM12 colon
LOX IMVI melanoma = tested on: LOX IMVI melanoma
M14 melanoma = tested on: M14 melanoma
MALME-3M melanoma = tested on: MALME-3M melanoma
MCF7 breast = tested on: MCF7 breast
MDA-MB-231 breast = tested on: MDA-MB-231 breast
MDA-MB-435 = tested on: MDA-MB-435
MDA-N = tested on: MDA-N
MOLT-4 leukemia = tested on: MOLT-4 leukemia
NCI-H226 lung = tested on: NCI-H226 lung
NCI-H23 lung = tested on: NCI-H23 lung
NCI-H460 lung = tested on: NCI-H460 lung
NCI-H522 lung = tested on: NCI-H522 lung
NCI/ADR-RES ovarian = tested on: NCI/ADR-RES ovarian
OVCAR-3 ovarian = tested on: OVCAR-3 ovarian
OVCAR-4 ovarian = tested on: OVCAR-4 ovarian
OVCAR-5 ovarian = tested on: OVCAR-5 ovarian
OVCAR-8 ovarian = tested on: OVCAR-8 ovarian
PC-3 prostate = tested on: PC-3 prostate
RPMI-8226 leukemia = tested on: RPMI-8226 leukemia
RXF 393 renal = tested on: RXF 393 renal
SF-268 CNS = tested on: SF-268 CNS
SF-295 CNS = tested on: SF-295 CNS
SF-539 CNS = tested on: SF-539 CNS
SK-MEL-2 melanoma = tested on: SK-MEL-2 melanoma
SK-MEL-28 melanoma = tested on: SK-MEL-28 melanoma
SK-MEL-5 melanoma = tested on: SK-MEL-5 melanoma
SK-OV-3 ovarian = tested on: SK-OV-3 ovarian
SN12C renal = tested on: SN12C renal
SNB-19 CNS = tested on: SNB-19 CNS
SNB-75 CNS = tested on: SNB-75 CNS
SR leukemia = tested on: SR leukemia
SW-620 colon = tested on: SW-620 colon
T-47D breast = tested on: T-47D breast
TK-10 renal = tested on: TK-10 renal
U251 CNS = tested on: U251 CNS
UACC-257 melanoma = tested on: UACC-257 melanoma
UACC-62 melanoma = tested on: UACC-62 melanoma
UO-31 renal = tested on: UO-31 renal

For `O=C(OC1C=C=CS(=O)(=O)CC#C/C=C\1)c1cnc2ccccc2n1` (centres undefined), the TGI (A498 renal) was greater than 100 µM, the TGI (A549 NSCLC) was greater than 100 µM and the TGI (ACHN renal) was greater than 100 µM. The TGI (BT-549 breast) was greater than 100 µM, the TGI (CAKI-1 renal) was greater than 100 µM and the TGI (CCRF-CEM leukemia) was greater than 100 µM. It also gave a TGI (COLO 205 colon) greater than 100 µM, a TGI (DU-145 prostate) greater than 100 µM and a TGI (EKVX NSCLC) greater than 100 µM. It also gave a TGI (HCC-2998 colon) greater than 100 µM, a TGI (HCT-116 colon) greater than 100 µM and a TGI (HCT-15 colon) greater than 100 µM. The TGI (HL-60(TB) leukemia) was greater than 100 µM, the TGI (HOP-62 NSCLC) was greater than 100 µM and the TGI (HOP-92 NSCLC) was 90.1 µM. It also gave a TGI (HS 578T breast) greater than 100 µM, a TGI (HT29 colon) greater than 100 µM and a TGI (IGROV1 ovarian) greater than 100 µM. The TGI (K-562 leukemia) was greater than 100 µM, the TGI (KM12 colon) was greater than 100 µM and the TGI (LOX IMVI melanoma) was greater than 100 µM. For the same compound, the TGI (M14 melanoma) was greater than 100 µM, the TGI (MALME-3M melanoma) was greater than 100 µM and the TGI (MCF7 breast) was greater than 100 µM. The TGI (MDA-MB-231 breast) was greater than 100 µM, the TGI (MDA-MB-435) was greater than 100 µM and the TGI (MDA-N) was greater than 100 µM. The TGI (MOLT-4 leukemia) was greater than 100 µM, the TGI (NCI-H226 lung) was greater than 100 µM and the TGI (NCI-H23 lung) was greater than 100 µM. For the same compound, the TGI (NCI-H460 lung) was greater than 100 µM, the TGI (NCI-H522 lung) was 51.6 µM and the TGI (NCI/ADR-RES ovarian) was greater than 100 µM. The TGI (OVCAR-3 ovarian) was greater than 100 µM, the TGI (OVCAR-4 ovarian) was greater than 100 µM and the TGI (OVCAR-5 ovarian) was greater than 100 µM. It also gave a TGI (OVCAR-8 ovarian) greater than 100 µM, a TGI (PC-3 prostate) greater than 100 µM and a TGI (RPMI-8226 leukemia) greater than 100 µM. For the same compound, the TGI (RXF 393 renal) was greater than 100 µM, the TGI (SF-268 CNS) was greater than 100 µM and the TGI (SF-295 CNS) was greater than 100 µM. For the same compound, the TGI (SF-539 CNS) was greater than 100 µM, the TGI (SK-MEL-2 melanoma) was greater than 100 µM and the TGI (SK-MEL-28 melanoma) was greater than 100 µM. It also gave a TGI (SK-MEL-5 melanoma) greater than 100 µM, a TGI (SK-OV-3 ovarian) greater than 100 µM and a TGI (SN12C renal) greater than 100 µM. It also gave a TGI (SNB-19 CNS) greater than 100 µM, a TGI (SNB-75 CNS) greater than 100 µM and a TGI (SR leukemia) greater than 100 µM. It also gave a TGI (SW-620 colon) greater than 100 µM, a TGI (T-47D breast) greater than 100 µM and a TGI (TK-10 renal) greater than 100 µM. It also gave a TGI (U251 CNS) greater than 100 µM, a TGI (UACC-257 melanoma) greater than 100 µM and a TGI (UACC-62 melanoma) greater than 100 µM. For the same compound, the TGI (UO-31 renal) was greater than 100 µM.

`O=c1c(Br)c(-c2ccccc2)[nH]c2ccccc12` showed a GI50 (A498 renal) of 31.6 µM, a TGI (A498 renal) greater than 100 µM and a GI50 (A549 NSCLC) of 0.168 µM. The TGI (A549 NSCLC) was 1.12 µM, the TGI (ACHN renal) was greater than 100 µM and the TGI (BT-549 breast) was greater than 100 µM. For the same compound, the GI50 (CAKI-1 renal) was 0.066 µM, the TGI (CAKI-1 renal) was 0.892 µM and the TGI (CCRF-CEM leukemia) was greater than 100 µM. It also gave a TGI (COLO 205 colon) greater than 100 µM, a TGI (DU-145 prostate) greater than 100 µM and a GI50 (EKVX NSCLC) of 41.5 µM. It also gave a TGI (EKVX NSCLC) greater than 100 µM, a GI50 (HCC-2998 colon) greater than 100 µM and a TGI (HCC-2998 colon) greater than 100 µM. It also gave a TGI (HCT-116 colon) greater than 100 µM, a TGI (HCT-15 colon) greater than 100 µM and a TGI (HL-60(TB) leukemia) of 56.6 µM. The TGI (HOP-62 NSCLC) was greater than 100 µM, the GI50 (HOP-92 NSCLC) was 19 µM and the TGI (HOP-92 NSCLC) was greater than 100 µM. The TGI (HS 578T breast) was greater than 100 µM, the TGI (HT29 colon) was greater than 100 µM and the GI50 (IGROV1 ovarian) was greater than 89.4 µM. It also gave a TGI (IGROV1 ovarian) greater than 100 µM, a GI50 (K-562 leukemia) of 28.9 µM and a TGI (K-562 leukemia) greater than 100 µM. The GI50 (KM12 colon) was 5.63 µM, the TGI (KM12 colon) was 63.8 µM and the TGI (LOX IMVI melanoma) was greater than 100 µM. For the same compound, the TGI (M14 melanoma) was greater than 100 µM, the TGI (MALME-3M melanoma) was greater than 100 µM and the TGI (MCF7 breast) was greater than 100 µM. It also gave a TGI (MDA-MB-231 breast) of 11.8 µM, a TGI (MDA-MB-435) greater than 100 µM and a TGI (MDA-N) greater than 85.4 µM. The GI50 (MOLT-4 leukemia) was 20.8 µM, the TGI (MOLT-4 leukemia) was greater than 75.6 µM and the GI50 (NCI-H226 lung) was 37.1 µM. For the same compound, the TGI (NCI-H226 lung) was greater than 100 µM, the TGI (NCI-H23 lung) was greater than 100 µM and the GI50 (NCI-H460 lung) was 3.54 µM. The TGI (NCI-H460 lung) was greater than 100 µM, the GI50 (NCI-H522 lung) was greater than 100 µM and the TGI (NCI-H522 lung) was greater than 100 µM. The TGI (NCI/ADR-RES ovarian) was greater than 100 µM, the TGI (OVCAR-3 ovarian) was greater than 100 µM and the TGI (OVCAR-4 ovarian) was greater than 100 µM. For the same compound, the GI50 (OVCAR-5 ovarian) was greater than 100 µM, the TGI (OVCAR-5 ovarian) was greater than 100 µM and the TGI (OVCAR-8 ovarian) was greater than 100 µM. The GI50 (PC-3 prostate) was 23.6 µM, the TGI (PC-3 prostate) was greater than 78.3 µM and the TGI (RPMI-8226 leukemia) was greater than 100 µM. It also gave a TGI (RXF 393 renal) greater than 100 µM, a GI50 (SF-268 CNS) greater than 100 µM and a TGI (SF-268 CNS) greater than 100 µM. For the same compound, the GI50 (SF-295 CNS) was 32.9 µM, the TGI (SF-295 CNS) was greater than 100 µM and the TGI (SF-539 CNS) was greater than 100 µM. The GI50 (SK-MEL-2 melanoma) was greater than 100 µM, the TGI (SK-MEL-2 melanoma) was greater than 100 µM and the TGI (SK-MEL-28 melanoma) was greater than 100 µM. For the same compound, the GI50 (SK-MEL-5 melanoma) was 13.6 µM, the TGI (SK-MEL-5 melanoma) was 29.9 µM and the TGI (SK-OV-3 ovarian) was greater than 100 µM. For the same compound, the GI50 (SN12C renal) was greater than 100 µM, the TGI (SN12C renal) was greater than 100 µM and the GI50 (SNB-19 CNS) was greater than 100 µM. The TGI (SNB-19 CNS) was greater than 100 µM, the GI50 (SNB-75 CNS) was 63.1 µM and the TGI (SNB-75 CNS) was greater than 100 µM. It also gave a TGI (SR leukemia) greater than 100 µM, a TGI (SW-620 colon) greater than 100 µM and a GI50 (T-47D breast) of 36.4 µM. For the same compound, the TGI (T-47D breast) was greater than 100 µM, the TGI (TK-10 renal) was greater than 100 µM and the TGI (U251 CNS) was greater than 100 µM. For the same compound, the TGI (UACC-257 melanoma) was 98 µM, the TGI (UACC-62 melanoma) was greater than 100 µM and the TGI (UO-31 renal) was 6.58 µM.
